# Reference: US20220104492A1, “PYRIDAZINIUM COMPOUNDS FOR USE IN A METHOD OF CONTROLLING UNWANTED PLANT GROWTH” (SYNGENTA CROP PROTECTION AG, priority 2019, published 2022)
# Structures can show the parent of a compound that is named as a salt.
# Assays:
# Assay in all cases: Post-emergence efficacy (glasshouse, spray application)
# Type in all cases: in vivo
# [1] = test system: Amaranthus palmeri (AMAPA); settings: 312 h, Application rate 500 g/Ha, evaluated after 13 days, 100=total damage to plant, 0=no damage to plant, read-out: Control of weed species after post-emergence application, AMAPA
# Experimental: (§1) Seeds of a variety of test species were sown in standard soil in pots. After cultivation for 14 days (post-emergence) under controlled conditions in a glasshouse (at 24/16° C., day/night; 14 hours light; 65 humidity), the plants were sprayed with an aqueous spray solution derived from the dissolution of the technical active ingredient formula (I) in a small amount of acetone and a special solvent and emulsifier mixture referred to as IF50 (11.12% Emulsogen EL360 TM+44.44% N-methylpyrrolidone+44.44% Dowanol DPM glycol ether), to create a 50 g/l solution which was then diluted to required concentration using a solution of 0.25% or 1% Empicol ESC70 (Sodium lauryl ether sulphate)+1% ammonium sulphate in water as diluent.
# (§2) The test plants were then grown in a glasshouse under controlled conditions (at 24/16° C., day/night; 14 hours light; 65% humidity) and watered twice daily. After 13 days the test was evaluated (100=total damage to plant; 0=no damage to plant).
# (§3) Ipomoea hederacea (IPOHE), Euphorbia heterophylla (EPHHL), Chenopodium album (CHEAL), Amaranthus palmeri (AMAPA), Lolium perenne (LOLPE), Digitaria sanguinalis (DIGSA), Eleusine indica (ELEIN), Echinochloa crus-galli (ECHCG), Setaria faberi (SETFA)
# [2] = test system: Chenopodium album (CHEAL); settings: 312 h, Application rate 500 g/Ha, evaluated after 13 days, 100=total damage to plant, 0=no damage to plant, read-out: Control of weed species after post-emergence application, CHEAL
# Experimental: as §1, §2, §3
# [3] = test system: Digitaria sanguinalis (DIGSA); settings: 312 h, Application rate 500 g/Ha, evaluated after 13 days, 100=total damage to plant, 0=no damage to plant, read-out: Control of weed species after post-emergence application, DIGSA
# Experimental: as §1, §2, §3
# [4] = test system: Echinochloa crus-galli (ECHCG); settings: 312 h, Application rate 500 g/Ha, evaluated after 13 days, 100=total damage to plant, 0=no damage to plant, read-out: Control of weed species after post-emergence application, ECHCG
# Experimental: as §1, §2, §3
# Eleusine indica (ELEIN) = settings: 312 h, Application rate 500 g/Ha, evaluated after 13 days, 100=total damage to plant, 0=no damage to plant, read-out: Control of weed species after post-emergence application, ELEIN
# Experimental: as §1, §2, §3
# [5] = test system: Euphorbia heterophylla (EPHHL); settings: 312 h, Application rate 500 g/Ha, evaluated after 13 days, 100=total damage to plant, 0=no damage to plant, read-out: Control of weed species after post-emergence application, EPHHL
# Experimental: as §1, §2, §3
# [6] = test system: Ipomoea hederacea (IPOHE); settings: 312 h, Application rate 500 g/Ha, evaluated after 13 days, 100=total damage to plant, 0=no damage to plant, read-out: Control of weed species after post-emergence application, IPOHE
# Experimental: as §1, §2, §3
# Lolium perenne (LOLPE) = settings: 312 h, Application rate 500 g/Ha, evaluated after 13 days, 100=total damage to plant, 0=no damage to plant, read-out: Control of weed species after post-emergence application, LOLPE
# Experimental: as §1, §2, §3
# Setaria faberi (SETFA) = settings: 312 h, Application rate 500 g/Ha, evaluated after 13 days, 100=total damage to plant, 0=no damage to plant, read-out: Control of weed species after post-emergence application, SETFA
# Experimental: as §1, §2, §3
SMILES,pest or weed control at 500 g/ha [1],pest or weed control at 500 g/ha [2],pest or weed control at 500 g/ha [3],pest or weed control at 500 g/ha [4],pest or weed control at 500 g/ha (Eleusine indica (ELEIN)),pest or weed control at 500 g/ha [5],pest or weed control at 500 g/ha [6],pest or weed control at 500 g/ha (Lolium perenne (LOLPE)),pest or weed control at 500 g/ha (Setaria faberi (SETFA))
CC(C)CC(NC(=O)C[n+]1ccc(-c2ncccn2)cn1)C(=O)O (stereo not shown) [Compound A6],100%,100%,50%,70%,90%,100%,90%,40%,50%
O=C(C[n+]1ccc(-c2ncccn2)cn1)NC(C(=O)O)c1ccccc1 (stereo not shown) [Compound A13],100%,50%,100%,80%,90%,50%,40%,30%,70%
CC(C)(CC(=O)O)NC(=O)CC[n+]1ccc(-c2ncccn2)cn1 [Compound A36],100%,100%,100%,40%,100%,90%,20%,90%,100%
CC(NC(=O)C[n+]1ccc(-c2ncccn2)cn1)C(=O)O (stereo not shown) [Compound A12],100%,100%,90%,70%,100%,100%,70%,50%,70%
"O=C(O)CCC(=O)C[n+]1ccc(-c2ncccn2)cn1 [Compound A9, 4-oxo-5-(4-pyrimidin-2-ylpyridazin-1-ium-1-yl)pentanoic acid chloride]",70%,70%,50%,70%,70%,70%,40%,0%,30%
"OCCOCC[n+]1ccc(-c2ncccn2)cn1 [Compound A17, 2-[2-(4-pyrimidin-2-ylpyridazin-1-ium-1-yl)ethoxy]ethanol 2,2,2-trifluoroacetate]",30%,50%,–,30%,20%,30%,0%,10%,20%
O=C(O)CSCC[n+]1ccc(-c2cccnn2)cn1 [Compound A18],100%,90%,60%,60%,100%,100%,70%,70%,60%
"O=C(O)CNS(=O)(=O)CC[n+]1ccc(-c2ncccn2)cn1 [Compound A29, 2-[2-(4-pyrimidin-2-ylpyridazin-1-ium-1-yl)ethylsulfonylamino]-acetic acid 2,2,2-trifluoroacetate]",100%,70%,–,50%,70%,90%,40%,50%,60%
O=C(C[n+]1ccc(-c2ncccn2)cn1)NC(Cc1ccccc1)C(=O)O (stereo not shown) [Compound A11],100%,50%,90%,70%,90%,90%,20%,20%,50%
O=C(O)CNC(=O)C[n+]1ccc(-c2ccccn2)cn1 [Compound A26],100%,100%,70%,90%,80%,100%,40%,40%,80%
O=C(O)CNC(=O)CC[n+]1ccc(-c2cccnn2)cn1 [Compound A27],100%,100%,100%,90%,60%,90%,40%,70%,100%
O=C(CC[n+]1ccc(-c2ncccn2)cn1)NC1(C(=O)O)CC1 [Compound A38],100%,100%,90%,50%,100%,80%,10%,90%,100%
O=C(O)CNC(=O)C[n+]1ccc(-c2cnccn2)cn1 [Compound A35],70%,40%,100%,50%,60%,40%,20%,0%,60%
CCCC(NC(=O)C[n+]1ccc(-c2ncccn2)cn1)C(=O)O (stereo not shown) [Compound A3],100%,100%,90%,90%,100%,100%,70%,50%,70%
CCC(C)C(NC(=O)C[n+]1ccc(-c2ncccn2)cn1)C(=O)O (stereo not shown) [Compound A5],100%,100%,10%,30%,10%,100%,60%,0%,10%
"O=S(=O)([O-])OCCOCC[n+]1ccc(-c2ncccn2)cn1 [Compound A21, 2-[2-(4-pyrimidin-2-ylpyridazin-1-ium-1-yl)ethoxy]ethyl sulfate]",100%,70%,70%,80%,80%,90%,40%,40%,70%
O=C(O)COCC[n+]1ccc(-c2ncccn2)cn1 [Compound A4],100%,100%,90%,90%,100%,100%,90%,80%,100%
